# Target: T1, Recombinant human GR (Homo sapiens, UniProt P04150)
# T1 construct: purchased Invitrogen P2816
# T1 sequence (P04150 1-777): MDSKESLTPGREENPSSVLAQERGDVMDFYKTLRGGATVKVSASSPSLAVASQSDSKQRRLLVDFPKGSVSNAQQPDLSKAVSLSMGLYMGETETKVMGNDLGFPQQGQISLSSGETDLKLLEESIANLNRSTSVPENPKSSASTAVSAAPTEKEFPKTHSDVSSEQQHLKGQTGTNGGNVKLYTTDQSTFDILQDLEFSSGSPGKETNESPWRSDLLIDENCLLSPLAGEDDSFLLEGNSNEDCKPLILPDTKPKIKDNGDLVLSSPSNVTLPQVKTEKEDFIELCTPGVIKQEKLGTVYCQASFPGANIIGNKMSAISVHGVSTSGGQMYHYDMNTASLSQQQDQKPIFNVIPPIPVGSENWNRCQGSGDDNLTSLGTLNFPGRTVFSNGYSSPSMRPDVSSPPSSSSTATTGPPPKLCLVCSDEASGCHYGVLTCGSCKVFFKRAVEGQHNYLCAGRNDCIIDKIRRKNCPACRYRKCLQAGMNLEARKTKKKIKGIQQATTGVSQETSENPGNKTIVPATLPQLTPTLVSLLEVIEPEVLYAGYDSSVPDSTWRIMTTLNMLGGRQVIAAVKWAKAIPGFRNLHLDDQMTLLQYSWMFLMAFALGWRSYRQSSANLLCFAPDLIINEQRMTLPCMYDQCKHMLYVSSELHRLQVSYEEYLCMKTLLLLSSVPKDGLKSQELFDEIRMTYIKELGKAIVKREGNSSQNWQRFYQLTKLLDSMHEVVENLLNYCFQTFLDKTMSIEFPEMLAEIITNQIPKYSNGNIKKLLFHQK
# Assay: Evaluation test for binding activity to glucocorticoid receptor: receptor competitor assay by fluorescence polarization (Invitrogen GR competitor assay kit, cat No. P2816)
# Conditions: 20 μM test compound solution, 10 μL per well plus 5 μL 4×GS1 and 5 μL 4×GR solution; room temperature 2 to 4 hours; a ratio of 100% or more is indicated by 100%
# Procedure: A detailed explanation of this matter will be described in the section of “Pharmacological Test” in Examples described below. In order to find the usefulness of the present compound as a pharmaceutical, a glucocorticoid receptor competitor assay was carried out by a fluorescence polarization method by using a glucocorticoid receptor competitor assay kit (manufactured by Invitrogen, cat No. P2816) to study the glucocorticoid receptor binding activity of the present compound.
# 1. Evaluation Test for Binding Activity to Glucocorticoid Receptor (hereinafter referred to as “GR”)
# In order to evaluate a binding activity to GR, a receptor competitor assay was carried out by a fluorescence polarization method. In the assay, a GR competitor assay kit (manufactured by Invitrogen, cat No. P2816) was used, and a procedure was carried out according to the protocol attached to the kit. Hereinafter, the specific method will be described.
# (Preparation of Reagents)
# GR screening buffer: A buffer containing 10 mM potassium phosphate (pH 7.4), 20 mM sodium molybdate (Na2MoO4), 0.1 mM ethylene diamine tetraacetic acid (EDTA), 5 mM dithiothreitol (DTT), 0.1 mM stabilizing peptide and 2% dimethylsulfoxide was prepared.
# 4×GS1 solution: Fluormone™ GS1, which is a fluorescent glucocorticoid ligand, was diluted with GR screening buffer, whereby a 4 nM solution was prepared.
# 4×GR solution: Recombinant human GR was diluted with GR screening buffer, whereby a 16 nM solution was prepared.
# (Preparation of Test Compound Solution)
# After a test compound was dissolved in dimethylsulfoxide, the resulting solution was diluted with GR screening buffer, whereby a 20 μM test compound solution was prepared.
# (Test Method and Measurement Method)
# 1) The test compound solution was added in an amount of 10 μL into each well of a 384-well plate, and then, 4×GS1 solution and 4×GR solution were added in an amount of 5 μL into each well, respectively.
# 2) The plate was incubated in a dark place at room temperature for 2 to 4 hours.
# 3) By using a multimode plate reader, Analyst™ HT (manufactured by LJL Biosystems), fluorescence polarization of each well was measured. As the blank, a well containing GR screening buffer in place of the test compound and 4×GS1 solution was used.
# 4) The same procedure as that in the above 1) to 3) was carried out except that GR screening buffer was used in place of the test compound solution, and the obtained result was taken as the negative control.
# 5) The same procedure as that in the above 1) to 3) was carried out except that 2 mM dexamethasone was used in place of the test compound solution, and the obtained result was taken as the positive control.
# (Calculation Equation of GR Binding Ratio)
# A GR binding ratio (%) was calculated from the following equation. GR binding ratio(%)=100×[1−(fluorescence polarization of test compound solution−fluorescence polarization of positive control solution)/(fluorescence polarization of negative control solution−fluorescence polarization of positive control solution)] (Test Results and Discussion)
smiles,measurement,value
"COc1ccccc1NCc1c(-c2ccc(OC(=O)c3ccc(C)nc3)cc2OC)ccc2c1C(C)=CC(C)(C)N2 [Compound 1-31, 6-[2-Methoxy-4-(6-methylpyridin-3-ylcarbonyloxy)phenyl]-5-(2-methoxyphenylaminomethyl)-2,2,4-trimethyl-1,2-dihydroquinoline]",inhibition at 20 µM (stock),92%
